Reference: US20260133193A1, “COMPOSITIONS AND METHODS FOR TREATING INFLAMMATORY DISEASES” (University of Washington, priority 2018, published 2026)

Legend:
Assay type in all cases: cell-based, human
[1] = system: FcgRIIA on neutrophils; assay: FcgRIIA shedding, fluorimetry of shed antibody-FcgRIIA complexes in supernatant; settings: pre-labeled neutrophils, R848 stimulation
Description: To assess if reduction in FcgRIIA cell surface expression was dependent on proteolytic cleavage or internalization of the receptor, we analyzed total FcgRIIA expression in fixed permeabilized neutrophils. Specifically, neutrophils were activated with R848 and FcgRIIA levels analyzed in permeabilized cells by flow cytometry. The experiment was repeated five times and compared using paired t test (P=0.0075). […] Specifically, FcgRIIA cell surface expression was analyzed by flow cytometry using two antibodies, FUN2 and IV.3, in non-stimulated and R848-stimulated neutrophils. The experiment was repeated six times; combined results were compared using paired t test (P<0.0001). […] For this experiment, neutrophils were labeled with FITC-conjugated IV.3 anti-FcgRIIA or anti-FUN-2 antibodies and the shed antibody-FcgRIIA complex quantified by fluorimetry following R848 stimulation with or without prior addition of a pan-protease inhibitor. […]
For detection of shed FcgRIIA, neutrophils were pre-labeled with FITC-conjugated anti-CD32A antibody IV.3 (Stemcell Technologies) or FITC-conjugated anti-CD32A antibody FUN-2 (Biolegend), and washed extensively prior to activation with R848. Cell free supernatant was analyzed for shed FcgRIIA-anti-CD32A-FITC complexes by flourimetry (Synergy 2, BioTek) using anti-CD32A antibodies as a standard curve. […]

[2] = system: Akt and S6; assay: S6 and Akt phosphorylation by flow cytometry; settings: TLR7/8 activation with R848
Description: We next asked which pathway(s) were acting upstream of NADPH oxidase to induce FcgRIIA shedding. […] Phosphorylation of Akt and S6 was determined by flow cytometry upon TLR7/8 activation. The experiment was repeated four times; combined results were compared using paired t test (pS6, P=0.042; pAkt, P=0.037). […] To confirm the role for PI3K in TLR-mediated activation of ROS and subsequent shedding of FcgRIIA, neutrophils were incubated with the PI3K inhibitor LY294002 prior to addition of TLR agonist. Blocking PI3K signaling abrogated TLR-mediated ROS generation, phosphorylation of ncf1 at S345 as well as shedding of FcgRIIA. Briefly, neutrophils, pre-treated with inhibitors of PI3K (LY294002, 10 μM) or NADPH oxidase (DPI, 25 μM), were activated with R848 and analyzed for ROS generation by flow cytometry using DHR123. […] Additionally, neutrophils were pre-treated with the PI3K inhibitor LY294002 (10 μM) and analyzed for R848-mediated shedding of FcgRIIA by flow cytometry. […]
Neutrophils were activated by R848 for 15 minutes, fixed and permeabilized according to manufacturer's instructions (BioLegend), and incubated with a specific antibody recognizing phosphorylated S235/236 in S6 (Cell Signaling) or phosphorylated S473 in Akt (BD Biosciences) for 60 minutes. pS6 and pAkt levels were analyzed by flow cytometry and expressed as percent positive cells as compared to non-stimulated cells.

[3] = system: FcgRIIA on monocytes; assay: FcgRIIA and CD11b on monocytes (PBMCs with R848, neutrophils or neutrophil supernatant)
Description: Since we observed prominent protease-mediated shedding of FcgRIIA in neutrophils, we next asked if activated neutrophils could induce shedding of FcgRIIA in other immune cells. PBMCs were co-incubated with neutrophils (PMNs) in the presence of R848 and a pan-protease inhibitor. Levels of FcgRIIA on monocytes (CD14+), and pDCs (CD304+) were determined by flow cytometry and expressed as FcgRIIA (% of control) as compared to PBMCs incubated in medium in absence of neutrophils. […]
To determine if the loss of monocyte FcgRIIA was mediated through cell-cell interactions or due to a soluble neutrophil-derived factor, we added supernatant from TLR7/8-activated neutrophils to monocytes. Specifically, neutrophil supernatant, derived from non-stimulated (no, n=5) or R848-stimulated (R848, n=9) neutrophils, were added to monocytes in presence of indicated inhibitors (CMK; furin inhibitor, n=5, and Pan; pan-protease inhibitor, n=5) and monocyte FcgRIIA levels analyzed by flow cytometry. […]
Neutrophils and PBMCs were incubated at a 2:1 ratio (500,000 vs 250,000 cells) with the pan-protease inhibitor (1×) for 30 minutes followed by R848 (2 μg/mL) for an additional 60 minutes and analyzed for FcgR levels by flow cytometry. […]

[4] = system: monocytes; assay: Monocyte phagocytosis of RNP-ICs; settings: RNase exposure or R848 priming
Description: Monocytes were incubated with R848 or neutrophil supernatant prior to addition of RNP-ICs or beads. Phagocytosis was determined by flow cytometry.
SLE IgG, SmRNP and heat-aggregated IgG (HAGG) were labeled with Alexa-647 according to manufacturer's protocol (Life Technologies). Neutrophils, or PBMCs, from healthy individual were stimulated with different ICs, FITC-conjugated latex beads or zymosan (100 μg/mL, Life Technologies) for 30 minutes at 37° C. and immediately analyzed for phagocytosis. […] In some experiments, R848, at a concentration of 2 μg/mL, or neutrophil supernatant, was added 30 and 90 minutes before addition of the phagocytic stimuli, respectively.
Plasmacytoid dendritic cells were identified based on their expression of BDCA-4 (Miltenyi Biotech) and monocytes based on their expression of CD14 (Biolegend). In some experiments neutrophil supernatant (generated by incubating neutrophils with R848 for 90 minutes) were added to PBMCs with or without presence of the pan-protease inhibitor (1×), and expression of FcgRs and phagocytic ability analyzed in monocytes by flow cytometry as described above.

CCOCc1nc2c(N)nc3ccccc3c2n1CC(C)(C)O [R848]
cell-free FcgRIIA-IV.3 (anti-CD32A) complexes in supernatant [1]: detected in increased amounts in the cell-free supernatant
levels of phosphorylated Akt and S6 [2]: induced increased levels of phosphorylated Akt and S6
monocyte cell surface CD11b ([3]; R848): up-regulation of cell surface CD11b
monocyte cell surface FcgRIIA levels ([3]; flow cytometry): unchanged
monocyte phagocytosis of RNP-ICs [4]: not affected
